≈ marks a conversion by molar mass, not a printed value. Calls of active or inactive are those of the source. The rule behind the calls is not given here.
What was measured:
[1] = test system: Candida albicans; experiment: Antifungal activity against Candida albicans MTCC 227 after 48 to 72 hrs; type: functional
[2] = test system: A549; experiment: Cytotoxicity against human A549 cells assessed as cell death at 100 ug/ml by MTT assay; type: functional
[3] = test system: Klebsiella pneumoniae; experiment: Antibacterial activity against Klebsiella pneumoniae MTCC 109 after 24 hrs; type: functional; settings: MTCC 109, 24 h
[4] = test system: Salmonella typhimurium; experiment: Antibacterial activity against Salmonella typhimurium MTCC 1251 at 1 mg/disc after 24 hrs by disc diffusion method; type: functional, Salmonella enterica subsp. enterica serovar Typhimurium; settings: for inhibition: Salmonella enterica subsp. enterica serovar Typhimurium
[5] = test system: A549; experiment: Cytotoxicity against human A549 cells assessed as cell death at 200 ug/ml by MTT assay; type: functional
[6] = test system: Staphylococcus aureus; experiment: Antibacterial activity against methicillin-resistant Staphylococcus aureus after 24 hrs; type: functional
[7] = test system: Shigella flexneri; experiment: Antibacterial activity against Shigella flexneri MTCC 1457 after 24 hrs; type: functional; settings: MTCC 1457, 24 h
[8] = test system: Staphylococcus aureus; experiment: Antibacterial activity against Staphylococcus aureus MTCC 96 at 1 mg/disc after 24 hrs by disc diffusion method; type: functional
[9] = Antifungal activity against Malassezia pachydermatis at 1 mg/disc after 48 hrs by disc diffusion method; type: functional
[10] = test system: A549; experiment: Cytotoxicity against human A549 cells assessed as cell death at 50 ug/ml by MTT assay; type: functional
[11] = test system: Proteus vulgaris; experiment: Antibacterial activity against Proteus vulgaris MTCC 1771 at 1 mg/disc after 24 hrs by disc diffusion method; type: functional
[12] = test system: Salmonella typhimurium; experiment: Antibacterial activity against Salmonella typhimurium MTCC 1251 after 24 hrs; type: functional, Salmonella enterica subsp. enterica serovar Typhimurium
[13] = test system: Proteus vulgaris; experiment: Antibacterial activity against Proteus vulgaris MTCC 1771 after 24 hrs; type: functional
[14] = test system: Staphylococcus aureus; experiment: Antibacterial activity against Staphylococcus aureus MTCC 96 after 24 hrs; type: functional
[15] = test system: Micrococcus luteus; experiment: Antibacterial activity against Micrococcus luteus MTCC 106 after 24 hrs; type: functional; settings: MTCC 106, 24 h
[16] = test system: Micrococcus luteus; experiment: Antibacterial activity against Micrococcus luteus MTCC 106 at 1 mg/disc after 24 hrs by disc diffusion method; type: functional
[17] = test system: Candida albicans; experiment: Antifungal activity against Candida albicans MTCC 227 at 1 mg/disc after 48 hrs by disc diffusion method; type: functional
[18] = test system: Shigella flexneri; experiment: Antibacterial activity against Shigella flexneri MTCC 1457 at 1 mg/disc after 24 hrs by disc diffusion method; type: functional
[19] = test system: Staphylococcus aureus; experiment: Antibacterial activity against methicillin-resistant Staphylococcus aureus at 1 mg/disc after 24 hrs by disc diffusion method; type: functional
[20] = test system: Klebsiella aerogenes; experiment: Antibacterial activity against Enterobacter aerogenes MTCC 111 at 1 mg/disc after 24 hrs by disc diffusion method; type: functional
[21] = test system: Klebsiella pneumoniae; experiment: Antibacterial activity against Klebsiella pneumoniae MTCC 109 at 1 mg/disc after 24 hrs by disc diffusion method; type: functional
[22] = test system: Klebsiella aerogenes; experiment: Antibacterial activity against Enterobacter aerogenes MTCC 111 after 24 hrs; type: functional
[23] = Salmonella enterica, MTCC 1251, 24 h

Compound | MIC [1] | Activity [2] [%] | MIC [3] [µg/mL] | inhibition zone (IZ) [4] [mm] | Activity [5] [%] | MIC [6] [µg/mL] | MIC [7] [µg/mL] | inhibition zone (IZ) [8] [mm] | inhibition [9] | Activity [10] [%] | inhibition zone (IZ) [11] [mm] | MIC [12, 23] [µg/mL] | MIC ([13]; MTCC 1771, 24 h) [µg/mL] | MIC [15] [µg/mL] | inhibition zone (IZ) [16] [mm] | inhibition zone (IZ) [17] [mm] | inhibition zone (IZ) [18] [mm] | inhibition zone (IZ) [19] [mm] | inhibition zone (IZ) [20] [mm] | inhibition zone (IZ) [21] [mm] | also measured
Cc1ccc2c(c1)[C@]1(C(=O)N2C)N(C)C[C@](C#N)(C(=O)c2c[nH]c3ccccc23)[C@]12C(=O)Nc1ccccc12 | 500 µg/mL (≈ 970 µM) | 10.73 | 125 (≈ 242 µM) | 9 | 15.12 | 500 (≈ 970 µM) | 125 (≈ 242 µM) | 9 | inactive | 0.66 | 12 | 500 (≈ 970 µM) | 125 (≈ 242 µM) | 500 (≈ 970 µM) | 10 | 8 | 11 | 8 | 13 | 11 | MIC ([14]; MTCC 96, 24 h): 500 µg/mL (≈ 970 µM); MIC ([22]; MTCC 111, 24 h): 125 µg/mL (≈ 242 µM)
C=CCN1C(=O)[C@@]2(c3ccccc31)N(C)C[C@](C#N)(C(=O)c1c[nH]c3ccccc13)[C@]21C(=O)Nc2ccccc21 | 500 µg/mL (≈ 948 µM) | 8.81 | 125 (≈ 237 µM) | 16 | 16 | 1000 (≈ 1900 µM) | 1000 (≈ 1900 µM) | 11 | inactive | 5.61 | 9 | 62.5 (≈ 118 µM) | 1000 (≈ 1900 µM) | 500 (≈ 948 µM) | 10 | 9 | 9 | 9 | – | 12 | MIC ([14]; MTCC 96, 24 h): 500 µg/mL (≈ 948 µM); inhibition [20]: inactive; MIC [22]: inactive
CC(=O)N1CCN(c2ccc(OCC3COC(Cn4ccnc4)(c4ccc(Cl)cc4Cl)O3)cc2)CC1 (stereo not given) [KETOCONAZOLE] | 25 µg/mL (≈ 47 µM) | – | – | – | – | – | – | – | – | – | – | – | – | – | – | 28 | – | – | – | – | inhibition zone (IZ) [9]: 26 mm
Cc1ccc2c(c1)[C@]1(C(=O)N2)N(C)C[C@](C#N)(C(=O)c2c[nH]c3ccccc23)[C@]12C(=O)Nc1ccccc12 | inactive | 56.34 | 500 (≈ 997 µM) | 10 | 62.96 | 500 (≈ 997 µM) | 125 (≈ 249 µM) | – | inactive | 31.6 | 10 | 500 (≈ 997 µM) | 500 (≈ 997 µM) | 500 (≈ 997 µM) | 10 | – | 11 | 10 | 9 | 9 | inhibition [8]: inactive; MIC [14]: inactive; inhibition [17]: inactive; MIC ([22]; MTCC 111, 24 h): 500 µg/mL (≈ 997 µM)
CN1C[C@](C#N)(C(=O)c2c[nH]c3ccccc23)[C@]2(C(=O)Nc3ccccc32)[C@@]12C(=O)Nc1ccc(Br)cc12 | 500 µg/mL (≈ 883 µM) | 9.34 | 500 (≈ 883 µM) | 15 | 15.98 | 500 (≈ 883 µM) | 500 (≈ 883 µM) | 11 | inactive | 3.43 | 12 | 125 (≈ 221 µM) | 250 (≈ 441 µM) | 1000 (≈ 1770 µM) | 9 | 11 | 10 | 9 | 10 | 9 | MIC ([14]; MTCC 96, 24 h): 500 µg/mL (≈ 883 µM); MIC [22]: inactive
CN[C@@H]1[C@H](O[C@H]2[C@H](O[C@H]3[C@H](O)[C@@H](O)[C@H](N=C(N)N)[C@@H](O)[C@@H]3N=C(N)N)O[C@@H](C)[C@]2(O)C=O)O[C@@H](CO)[C@H](O)[C@H]1O [STREPTOMYCIN] | – | – | 6.25 (≈ 10.7 µM) | 18 | – | 6.25 (≈ 10.7 µM) | 6.25 (≈ 10.7 µM) | 14 | – | – | 30 | 30 (≈ 51.6 µM) | – | 6.25 (≈ 10.7 µM) | 26 | – | 30 | 30 | 22 | 20 | MIC [13]: inactive; MIC ([14]; MTCC 96, 24 h): 6.25 µg/mL (≈ 10.7 µM); MIC ([22]; MTCC 111, 24 h): 25 µg/mL (≈ 43 µM)
CCOC(=O)CN1C(=O)[C@@]2(c3ccccc31)N(C)C[C@](C#N)(C(=O)c1c[nH]c3ccccc13)[C@]21C(=O)Nc2ccccc21 | – | 21.25 | – | – | 27.78 | – | – | 9 | – | 11.04 | 8 | – | – | – | – | 9 | – | – | – | – | inhibition [4]: inactive; inhibition zone (IZ) [9]: 11 mm; inhibition [16]: inactive; inhibition [18]: inactive; inhibition [19]: inactive; inhibition [20]: inactive; inhibition [21]: inactive
CCN1C(=O)[C@@]2(c3ccccc31)N(C)C[C@](C#N)(C(=O)c1c[nH]c3ccccc13)[C@]21C(=O)Nc2ccccc21 | 500 µg/mL (≈ 970 µM) | 18.61 | 500 (≈ 970 µM) | 7 | 26.58 | 500 (≈ 970 µM) | 500 (≈ 970 µM) | 9 | inactive | 7.16 | 9 | 500 (≈ 970 µM) | 500 (≈ 970 µM) | 500 (≈ 970 µM) | 11 | 8 | 9 | 11 | 8 | 10 | MIC ([14]; MTCC 96, 24 h): 500 µg/mL (≈ 970 µM); MIC ([22]; MTCC 111, 24 h): 500 µg/mL (≈ 970 µM)
CN1C[C@](C#N)(C(=O)c2c[nH]c3ccccc23)[C@]2(C(=O)Nc3ccccc32)[C@@]12C(=O)Nc1ccccc12 | 500 µg/mL (≈ 1030 µM) | 20.91 | 125 (≈ 256 µM) | – | 33.5 | 500 (≈ 1030 µM) | 500 (≈ 1030 µM) | 8 | inactive | 17.46 | 8 | – | 500 (≈ 1030 µM) | 500 (≈ 1030 µM) | 9 | 9 | 8 | 10 | 9 | 12 | inhibition [4]: inactive; MIC ([12]; Salmonella enterica subsp. enterica serovar Typhimurium): inactive; MIC ([14]; MTCC 96, 24 h): 500 µg/mL (≈ 1030 µM); MIC ([22]; MTCC 111, 24 h): 500 µg/mL (≈ 1030 µM)
CN1C(=O)[C@@]2(c3cc(I)ccc31)N(C)C[C@](C#N)(C(=O)c1c[nH]c3ccccc13)[C@]21C(=O)Nc2ccccc21 | 500 µg/mL (≈ 797 µM) | 12.66 | 500 (≈ 797 µM) | 10 | 26.85 | 125 (≈ 199 µM) | 500 (≈ 797 µM) | 11 | – | 4.34 | 9 | 500 (≈ 797 µM) | 500 (≈ 797 µM) | 125 (≈ 199 µM) | 11 | 9 | 10 | 12 | 13 | 9 | inhibition zone (IZ) [9]: 11 mm; MIC ([14]; MTCC 96, 24 h): 125 µg/mL (≈ 199 µM); MIC ([22]; MTCC 111, 24 h): 125 µg/mL (≈ 199 µM)
CN1C[C@](C#N)(C(=O)c2c[nH]c3ccccc23)[C@]2(C(=O)Nc3ccccc32)[C@@]12C(=O)N(c1ccccc1)c1ccccc12 | – | 41.58 | – | – | 47.89 | – | – | 7 | – | 39.41 | – | – | – | – | – | 13 | – | – | – | 9 | inhibition [4]: inactive; inhibition zone (IZ) [9]: 14 mm; inhibition [11]: inactive; inhibition [16]: inactive; inhibition [18]: inactive; inhibition [19]: inactive; inhibition [20]: inactive
CN1C[C@](C#N)(C(=O)c2c[nH]c3ccccc23)[C@]2(C(=O)Nc3ccccc32)[C@@]12C(=O)Nc1ccc([N+](=O)[O-])cc12 | – | 36.65 | – | 8 | 55.26 | – | – | – | inactive | 18.37 | – | – | – | – | – | 9 | – | – | 8 | – | inhibition [8]: inactive; inhibition [11]: inactive; inhibition [16]: inactive; inhibition [18]: inactive; inhibition [19]: inactive; inhibition [21]: inactive
CN1C(=O)[C@@]2(c3cc([N+](=O)[O-])ccc31)N(C)C[C@](C#N)(C(=O)c1c[nH]c3ccccc13)[C@]21C(=O)Nc2ccccc21 | – | 24.36 | – | 8 | 60.22 | – | – | – | – | 9.27 | – | – | – | – | 7 | 9 | – | – | – | – | inhibition [8]: inactive; inhibition zone (IZ) [9]: 12 mm; inhibition [11]: inactive; inhibition [18]: inactive; inhibition [19]: inactive; inhibition [20]: inactive; inhibition [21]: inactive

— ChEMBL document CHEMBL2331252, “Facile one-pot synthesis of novel dispirooxindole-pyrrolidine derivatives and their antimicrobial and anticancer activity against A549 human lung adenocarcinoma cancer cell line” (Bioorg Med Chem Lett, 2013)
